Experimental data reported in patent publication US10202404B2, “Polycyclic pyridone derivative having integrase inhibitory activity” (Shionogi & Co., Ltd., priority 2014, dated 2019).
pEC50: −log10 of the molar value.

Test system: HIV
Test: Anti-HIV activity (MT-4 cells, MTT)
Type: cell-based
Conditions: 50% HIV inhibition concentration, MT-4 cells infected with HIV, incubated 4 days, MTT readout
Description: Previously, a series of two-fold dilution on test samples were carried out in a 96-well plate (50 μL/well). Two plates were made for measuring anti-HIV activity and measuring cytotoxicity. For each agent, measurement in duplicate was carried out. An MT-4 cell suspension of 2.5×10^5/mL was dispensed at 100 μL/well onto the 96-well plate containing the test samples. An HIV virus solution was dispensed at 50 μL/well onto the 96-well plate containing the test samples and the cell. To the plate for measuring cytotoxicity, a culture solution was dispensed at 50 μL/well. It was mixed by a plate mixer, and then incubated in a CO2 incubator for 4 days. […] Thirty microliters of a MTT (3-(4,5-dimethylthiazol-2-yl)-2,5-diphenyltetrazolium bromide) solution was dispensed to each well.
A reaction was allowed to occur in a CO2 incubator for an hour. From each well, 150 μL of the supernatant was removed such that cells are not sucked. One-hundred and fifty microliters of a cell lysis solution was added thereto, and then it was mixed well by a plate mixer until the whole cells are lysed. The mixed 96-well plates were measured by a microplate reader at two wavelengths, 560 nm/690 nm. Based on the following calculation formula, 50% HIV inhibition concentration (EC50) was calculated. EC50=10Z Z=(50%−Low %)/(High %−Low %)×{log(High conc.)−log(Low conc.)}+log(Low conc.) Based on the following calculation formula, 50% cytotoxic concentration (CC50) was calculated. CC50=10Z Z=(50%−Low %)/(High %−Low %)×{log(High conc.)−log(Low conc.)}+log(Low conc.) Based on the following calculation formula, selectivity index (ST) was calculated. SI=CC50/EC50 (Result)

[1] = Human immunodeficiency virus 1, MT4, 96 h

Row | pEC50 | SMILES | pEC50 [1]
1 | – | C[C@H]1CO[C@@H]2Cn3cc(-c4ncc(Cc5cccc(Cl)c5F)s4)c(=O)c(O)c3C(=O)N12 [Compound A-2] | 8.60
2 | – | C[C@@H]1CO[C@H]2Cn3cc(-c4ncc(Cc5cccc(Cl)c5F)s4)c(=O)c(O)c3C(=O)N12 [Compound A-3] | 8.43
3 | – | O=C1c2c(O)c(=O)c(-c3ncc(Cc4cccc(Cl)c4F)s3)cn2C[C@H]2CCCCN12 [Compound B-18] | 7.85
4 | – | O=C1c2c(O)c(=O)c(-c3nnc(Cc4ccc(F)cc4F)s3)cn2C[C@@H]2N1C[C@H]1CCCN12 [Compound A-55] | 8.77
5 | – | O=C1c2c(O)c(=O)c(-c3ncc(Cc4cccc(Cl)c4F)s3)cn2C[C@H]2CCCN12 [Compound B-17] | 8.28
6 | – | C[C@H]1CCO[C@@H]2Cn3cc(-c4ncc(Cc5cccc(Cl)c5F)s4)c(=O)c(O)c3C(=O)N12 [Compound A-11] | 8.06
7 | – | C[C@@H]1CCO[C@H]2Cn3cc(-c4nnc(Cc5c(F)cc(F)cc5F)s4)c(=O)c(O)c3C(=O)N12 [Compound A-23] | 8.59
8 | – | CC(=O)Oc1c2n(cc(-c3nnc(Cc4ccc(F)cc4F)s3)c1=O)C[C@@H]1OCC[C@@H](C)N1C2=O [Compound D-1] | 8.42
9 | – | O=C1c2c(O)c(=O)c(-c3nnc(Cc4ccc(F)cc4F)s3)cn2C[C@@H]2O[C@H]3COC[C@H]3N12 [Compound A-74] | 7.92
10 | – | O=C1c2c(O)c(=O)c(-c3nnc(Cc4ccc(F)cc4F)s3)cn2C[C@@H]2O[C@H]3CCC[C@H]3N12 [Compound A-63] | 8.70
11 | – | C[C@@H]1CCO[C@H]2Cn3cc(-c4nnc(Cc5ccc(F)c(Cl)c5F)s4)c(=O)c(O)c3C(=O)N12 [Compound A-26] | 8.42
12 | – | O=C1c2c(O)c(=O)c(-c3nnc(Cc4ccc(F)cc4F)s3)cn2CN2CC3(CC3)CN12 [Compound C-24] | 8.62
13 | – | C[C@H]1CO[C@@H]2Cn3cc(-c4ncc(Cc5ccc(F)cc5F)s4)c(=O)c(O)c3C(=O)N12 [Compound A-6] | 8.72
14 | – | C[C@@H]1CCO[C@H]2Cn3cc(-c4cn(Cc5ccc(F)cc5F)nn4)c(=O)c(O)c3C(=O)N12 [Compound A-72] | 8.07
15 | – | O=C1c2c(O)c(=O)c(-c3nnc(Cc4cccc(Cl)c4F)s3)cn2C[C@@H]2N1C[C@H]1CCCN12 [Compound A-54] | 8.80
16 | – | C[C@@H]1CCO[C@H]2Cn3cc(-c4nnc(C(F)(F)c5cccc(Cl)c5F)s4)c(=O)c(O)c3C(=O)N12 [Compound A-43] | 8.44
17 | – | O=C1c2c(O)c(=O)c(-c3nnc(Cc4ccc(F)cc4F)s3)cn2C[C@@H]2[C@H]3CC[C@H](C3)N12 [Compound B-22] | 8.46
18 | – | C[C@@H]1CCN2C(=O)c3c(O)c(=O)c(-c4nnc(Cc5ccc(F)cc5F)s4)cn3C[C@@H]2O1 [Compound A-16] | 8.68
19 | – | O=C1c2c(O)c(=O)c(-c3nnc(Cc4ccc(F)cc4F)s3)cn2C[C@H]2O[C@@H]3CC[C@@H](C3)N12 [Compound A-65] | 8.38

Row | pEC50 | SMILES | pEC50 [1]
20 | – | C[C@H]1N2C(=O)c3c(O)c(=O)c(-c4nnc(Cc5ccc(F)cc5F)s4)cn3C[C@@H]2OCC12CC2 [Compound A-57] | 8.77
21 | 7.74 | C[C@@H]1CCO[C@H]2Cn3cc(-c4nnc(Cc5ccc(F)cc5F)[nH]4)c(=O)c(O)c3C(=O)N12 [Compound A-52] | –
22 | – | C[C@H]1CO[C@@H]2Cn3cc(-c4ncc(Cc5c(F)cc(F)cc5F)s4)c(=O)c(O)c3C(=O)N12 [Compound A-14] | 8.92
23 | – | Cc1nc(-c2cn3c(c(O)c2=O)C(=O)N2[C@H](C)CCO[C@H]2C3)cn1Cc1ccc(F)cc1F [Compound A-59] | 8.02
24 | – | CC1CCN2Cn3cc(-c4nnc(Cc5ccc(F)cc5F)s4)c(=O)c(O)c3C(=O)N12 (stereo not drawn) [Compound C-28] | 8.32
25 | – | CCN1CN(CCCOC)C(=O)c2c(O)c(=O)c(-c3nnc(Cc4cccc(Cl)c4F)s3)cn21 [Compound C-8] | 8.62
26 | – | C[C@@H]1CCS[C@H]2Cn3cc(-c4nnc(Cc5ccc(F)cc5F)s4)c(=O)c(O)c3C(=O)N12 [Compound A-76] | 8.33
27 | – | Cc1nc(-c2cn3c(c(O)c2=O)C(=O)N2[C@H](C)CCO[C@H]2C3)sc1Cc1cccc(Cl)c1F [Compound A-80] | 8.20
28 | – | O=C1c2c(O)c(=O)c(-c3nnc(Cc4ccc(F)cc4F)s3)cn2CN2CCCCN12 [Compound C-15] | 8.77
29 | – | O=C1c2c(O)c(=O)c(-c3ncc(Cc4cccc(Cl)c4F)s3)cn2C[C@@H]2CCCCN12 [Compound B-19] | 7.74
30 | – | CCN1CN(CCOC)C(=O)c2c(O)c(=O)c(-c3nnc(Cc4cccc(Cl)c4F)s3)cn21 [Compound C-4] | 8.68
31 | – | O=C1c2c(O)c(=O)c(-c3nnc(Cc4ccc(F)cc4F)s3)cn2C[C@H]2O[C@@H]3COC[C@@H]3N12 [Compound A-73] | 8.24
32 | – | CCN1CN(CCCOC)C(=O)c2c(O)c(=O)c(-c3nnc(Cc4ccc(F)cc4F)s3)cn21 [Compound C-7] | 8.70
33 | – | CCN1CN(CCOC)C(=O)c2c(O)c(=O)c(-c3nnc(Cc4ccc(F)cc4F)s3)cn21 [Compound C-2] | 8.85
34 | – | O=C1c2c(O)c(=O)c(-c3nnc(Cc4ccc(F)cc4F)s3)cn2C[C@@H]2COCCN12 [Compound B-10] | 8.00
35 | – | O=C1c2c(O)c(=O)c(-c3nnc(Cc4ccc(F)cc4F)s3)cn2CC2OCC3(COC3)CN12 (stereo not drawn) [Compound A-58] | 8.00
36 | – | C[C@@H]1CO[C@H]2Cn3cc(-c4nnc(Cc5ccc(F)cc5F)s4)c(=O)c(O)c3C(=O)N2C1 [Compound A-21] | 9.00
37 | – | C[C@H]1CCO[C@@H]2Cn3cc(-c4ncc(Cc5ccc(F)cc5F)s4)c(=O)c(O)c3C(=O)N12 [Compound A-10] | 8.36
38 | – | COC[C@@H]1CCN2C(=O)c3c(O)c(=O)c(-c4nnc(Cc5ccc(F)cc5F)s4)cn3C[C@@H]2O1 [Compound A-68] | 8.34

Row | pEC50 | SMILES | pEC50 [1]
39 | – | O=C1c2c(O)c(=O)c(-c3ncc(Cc4ccc(F)cc4F)s3)cn2C[C@@H]2CCCN12 [Compound B-13] | 8.11
40 | – | C[C@H]1CO[C@@H]2Cn3cc(-c4nnc(Cc5ccc(F)cc5F)s4)c(=O)c(O)c3C(=O)N12 [Compound A-15] | 8.96
41 | – | O=C1c2c(O)c(=O)c(-c3nnc(Cc4ccc(F)cc4F)s3)cn2C[C@H]2CCCCN12 [Compound B-2] | 8.41
42 | – | C[C@@H]1CCO[C@H]2Cn3cc(-c4cc(Cc5ccc(F)cc5F)n(C)n4)c(=O)c(O)c3C(=O)N12 [Compound A-79] | 7.82
43 | – | C[C@@H]1CO[C@H]2Cn3cc(-c4ncc(Cc5ccc(F)cc5F)s4)c(=O)c(O)c3C(=O)N2C1 [Compound A-8] | 8.46
44 | – | C[C@@H]1CO[C@H]2Cn3cc(-c4nnc(Cc5cccc(Cl)c5F)s4)c(=O)c(O)c3C(=O)N12 [Compound A-20] | 8.52
45 | – | C[C@H]1CCN(C2CC2)[C@@H]2Cn3cc(-c4nnc(Cc5cccc(Cl)c5F)s4)c(=O)c(O)c3C(=O)N12 [Compound A-56] | 8.40
46 | – | CCN1Cn2cc(-c3nnc(Cc4ccc(F)cc4F)s3)c(=O)c(O)c2C(=O)N1CC [Compound C-21] | 8.82
47 | – | CCN1C(=O)c2c(O)c(=O)c(-c3nnc(Cc4ccc(F)cc4F)s3)cn2CN1C [Compound C-23] | 8.92
48 | – | C[C@@H]1CCO[C@H]2Cn3cc(-c4nnc(Cc5ccc(F)cc5F)s4)c(=O)c(OCOC(=O)C(C)(C)C)c3C(=O)N12 [Compound D-3] | 8.32
49 | – | C[C@@H]1CCO[C@H]2Cn3cc(-c4nc(C(F)(F)F)c(Cc5ccc(F)cc5F)s4)c(=O)c(O)c3C(=O)N12 [Compound A-48] | 7.85
50 | – | Cc1nc(-c2cn3c(c(O)c2=O)C(=O)N2[C@@H](C)CO[C@@H]2C3)sc1Cc1cccc(Cl)c1F [Compound A-46] | 8.41
51 | – | C[C@@H]1CCO[C@H]2Cn3cc(-c4ncc(Cc5c(F)cc(F)cc5F)s4)c(=O)c(O)c3C(=O)N12 [Compound A-12] | 8.31
52 | – | O=C1c2c(O)c(=O)c(-c3ncc(Cc4ccc(F)cc4F)s3)cn2C[C@H]2CCCN12 [Compound B-15] | 8.40
53 | – | O=C1c2c(O)c(=O)c(-c3nnc(Cc4ccc(F)cc4F)s3)cn2C[C@H]2OCC[C@@H](C(F)(F)F)N12 [Compound A-70] | 8.10
54 | – | O=C1c2c(O)c(=O)c(-c3ncc(Cc4ccc(F)cc4F)s3)cn2C[C@H]2CCCCN12 [Compound B-16] | 8.11
55 | – | C[C@H]1CO[C@@H]2Cn3cc(-c4cnc(Cc5ccc(F)cc5F)s4)c(=O)c(O)c3C(=O)N12 [Compound A-42] | 8.00
56 | – | O=C1c2c(O)c(=O)c(-c3nnc(Cc4ccc(F)cc4F)s3)cn2C[C@H]2CCCN12 [Compound B-3] | 8.43
57 | – | COCCN1Cn2cc(-c3nnc(Cc4ccc(F)cc4F)s3)c(=O)c(O)c2C(=O)N1C [Compound C-26] | 8.82
